According to patent US20230242496A1, “SOX11 INHIBITORS FOR TREATING MANTLE CELL LYMPHOMA” (Icahn School of Medicine At Mount Sinai, priority 2020, published 2023):

Experiments:
(His)6-SOX11-DBD protein = biological target: T1, (His)6-SOX11-DBD protein (Homo sapiens, UniProt P35716); experiment: Surface Plasmon Resonance (SPR) assay; assay type: binding; settings: immobilized recombinant (His)6-SOX11-DBD, 25° C., compounds 5-40 μM, mean of three experiments
T1 construct: Recombinant (His)6-SOX11-DBD protein was immobilized
T1 sequence (P35716 49-117 limits assumed): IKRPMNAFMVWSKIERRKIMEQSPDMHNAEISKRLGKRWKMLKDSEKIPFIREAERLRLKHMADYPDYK
Experimental: Surface Plasmon Resonance (SPR) Assay
Recombinant (His)6-SOX11-DBD protein was immobilized at a flow rate of 10 μl/min for 180 seconds to the right channel of a gold-coated SCR NiHC200M sensor chip (XanTec bioanalytics) placed in a Reichert 2SPR instrument (Reichert Technologies). The left channel, without immobilized protein, was used as a reference. […] Compounds flowed sequentially from the left to the right channel over the prepared sensor chip surface. 120 seconds association phase with each compound concentration was followed by 300 seconds dissociation phase with the assay buffer alone. The ka, kd, and KD values were determined from the sensograms for at least 3 concentrations of each compound by curve fitting the data using Reichert's TraceDrawer software. The mean KD value for each compound was calculated from three separate experiments.

Jeko-1 (SOX11+) = experiment: Cell viability assay (CellTiter-Blue resazurin reduction); assay type: cell-based; settings: JeKo-1 cells; for Jeko-1 Viability at 20 μM (%): 20 μM compound, normalized to 0.2% DMSO; for IC50: 0-40 μM
Experimental: Cell viability was determined by a fluorometric resazurin reduction method (CellTiter-Blue; Promega, Madison, Wis.) following the manufacturer's instructions. […] Cells were incubated for 72 hours. After incubation, 20 μl CellTiter-Blue Cell was added to each well and incubated for another 2 hours. […] The number of viable cells in each treated well was calculated, based on the linear least squares regression of the standard curve (OD vs. cell concentration). The viability of cells treated with compounds was normalized to the viability of cells treated with 0.2% Dimethyl sulfoxide (DMSO). Cell counts were confirmed with Trypan Blue Exclusion Assay on the Countess automated cell counter (Invitrogen) according to the manufacturer's specifications. The average and mean standard deviation were calculated from three separate experiments. IC50 values were calculated using the GraphPad Prism (version 4.00) based on a sigmoidal dose-response equation.

Row | Kd ((His)6-SOX11-DBD protein) [µM] | SMILES | also measured
1 | 18.2 | O=C(Nc1cccc(CNc2ccccc2)c1)c1ccc2oc(=O)[nH]c2c1 | 
2 | 7.52 | CCN1C(=O)CSc2ccc(C(=O)Nc3ccc(S(=O)(=O)N4CCCCC4)cc3)cc21 | 
3 | 10.2 | CN(c1ccccc1)S(=O)(=O)c1ccc(NC(=O)c2ccc3c(c2)CCCS3)cc1Cl | 
4 | 5.62 | CN(c1ccccc1)S(=O)(=O)c1ccc(NC(=O)c2ccc3c(c2)CCCS3)cc1C(F)(F)F | 
5 | 20.7 | CN(Cc1ccccc1)c1ccc(CNc2ccc3cncnc3c2)cc1 | 
6 | 24.4 | c1ncc2ccc(NCc3ccc(OCC4CCOCC4)cc3)cc2n1 | 
7 | 46.1 | O=C(Nc1ccc(CNc2ccccc2)cc1)c1ccc2nncn2c1 | 
8 | 8.28 | c1ncc2ccc(NCc3ccc(OCC4CCCCC4)cc3)cc2n1 | 
9 | 30.6 | c1ccc(CNc2ccc(CNc3ccc4cncnc4c3)cc2)cc1 | 
10 | 7.63 | Cc1cccc(COc2ccc(CNc3ccc4cncnc4c3)cc2)c1 | 
11 | 3.28 | Clc1cccc(COc2ccc(CNc3ccc4cncnc4c3)cc2)c1 | 
12 | 7.88 | Clc1ccccc1COc1ccc(CNc2ccc3cncnc3c2)cc1 | 
13 | 2.73 | Cc1ccc(N(C)S(=O)(=O)c2ccc(NC(=O)c3ccc4c(c3)CCCS4)cc2)cc1 | 
14 | 4.55 | Cc1cccc(N(C)S(=O)(=O)c2ccc(NC(=O)c3ccc4c(c3)CCCS4)cc2)c1 | 
15 | 10.8 | CN(c1ccc(Cl)cc1)S(=O)(=O)c1ccc(NC(=O)c2ccc3c(c2)CCCS3)cc1 | 
16 | 11.5 | CN(Cc1ccc(NC(=O)c2ccc3c(c2)CCCS3)cc1)c1ccccc1 | 

Continued, molecule first:

Row | SMILES | Kd ((His)6-SOX11-DBD protein) [µM] | also measured
17 | CN1C(=O)CSc2ccc(C(=O)Nc3ccc(CN4CCCCC4)cc3)cc21 | 129 | 
18 | CN1C(=O)CSc2ccc(C(=O)Nc3ccc(S(C)(=O)=O)cc3)cc21 | 82.1 | 
19 | CN(c1cccc(Cl)c1)S(=O)(=O)c1ccc(NC(=O)c2ccc3c(c2)CCCS3)cc1 | 14.2 | 
20 | CN(c1ccccc1)S(=O)(=O)c1ccc(NC(=O)c2ccc(/C=C/C(=O)O)cc2)cc1 | 106 | 
21 | CN(c1ccccc1)S(=O)(=O)c1ccc(NC(=O)c2ccc(SCC(=O)O)cc2)cc1 | 11 | 
22 | CN(Cc1cccc(NC(=O)c2ccc3oc(=O)[nH]c3c2)c1)c1ccccc1 | 13.6 | 
23 | CC(C)N1C(=O)CSc2ccc(C(=O)Nc3ccc(S(=O)(=O)N4CCCCC4)cc3)cc21 | 6.37 | 
24 | CCN(c1ccccc1)S(=O)(=O)c1ccc(NC(=O)c2ccc3c(c2)CCCS3)cc1 | 130 | 
25 | CN(Cc1ccccc1)c1ccc(CNc2ccc3cccnc3c2)cc1 | 9.27 | 
26 | O=C1COc2ccc(C(=O)Nc3ccc(CNc4ccccc4)cc3)cc2N1 | 5.28 | 
27 | Cc1ccccc1COc1ccc(CNc2ccc3cncnc3c2)cc1 | 11.1 | 
28 | Cc1cc(OCc2ccccc2)ccc1CNc1ccc2cncnc2c1 | 9.24 | 
29 | Clc1cc(CNc2ccc3cncnc3c2)ccc1OCc1ccccc1 | 4.01 | 
30 | FC(F)(F)c1cc(CNc2ccc3cncnc3c2)ccc1OCc1ccccc1 | 4.89 | 
31 | O=C1CSc2ccc(C(=O)Nc3ccc(CNc4ccccc4)cc3)cc2N1 | 1.74 | 
32 | CC(=O)N1CCN(S(=O)(=O)c2ccc(NC(=O)c3ccc4snnc4c3)cc2)CC1 | 16.9 | 
33 | CN1C(=O)CSc2ccc(C(=O)Nc3ccc(S(C)(=O)=O)c(Cl)c3)cc21 | 141 | 
34 | Cc1ccccc1N(C)S(=O)(=O)c1ccc(NC(=O)c2ccc3c(c2)CCCS3)cc1 | 10.3 | 
35 | CN(c1ccccc1Cl)S(=O)(=O)c1ccc(NC(=O)c2ccc3c(c2)CCCS3)cc1 | 2.39 | 
36 | CN(Cc1ccc(NC(=O)c2ccc3nn[nH]c3c2)cc1)c1ccccc1 | 2.9 | 
37 | CN(Cc1ccc(NC(=O)c2ccc3c(c2)N(C)C(=O)CS3)cc1)c1ccccc1 | 8.1 | 
38 | CN(Cc1ccc(NC(=O)c2ccc3c(c2)NC(=O)CS3)cc1)c1ccccc1 | 24.8 | 
39 | O=C(Nc1ccc(CNc2ccccc2)cc1)c1ccc2oc(=O)[nH]c2c1 | 7.91 | 
40 | O=C1CSc2ccc(C(=O)Nc3ccc(S(=O)(=O)Nc4ccccc4)cc3)cc2N1 [drawing 503] |  | Jeko-1 Viability at 20 μM (%) (Jeko-1 (SOX11+); 72 hours): 2.73%; IC50 (Jeko-1 (SOX11+); 72 hours): 7.5 µM
41 | O=C1CSc2ccc(C(=O)Nc3ccc(S(=O)(=O)Nc4ccccc4)cc3)cc2N1 [drawing 513] |  | Jeko-1 Viability at 20 μM (%) (Jeko-1 (SOX11+); 72 hours): 79.21%; IC50 (Jeko-1 (SOX11+); 72 hours): > 20 µM
42 | CC1Sc2ccc(C(=O)Nc3ccc(S(=O)(=O)Nc4ccccc4)cc3)cc2NC1=O (stereo not drawn) [drawing 599] |  | IC50 (Jeko-1 (SOX11+); Homo sapiens, JeKo-1, 72 h): 12.5 µM; Jeko-1 Viability at 20 μM (%) (Jeko-1 (SOX11+); 72 hours): 6.36%
